Reference: patent US4916146A, “Amino acid imide derivatives, usage thereof, and medicinal composition containing the same” (Zeria Pharmaceutical Co., Ltd., priority 1987, dated 1990)
Read-outs that look alike come from different tables or passages of the source.

Legend:
[1] = system: ICR male mice; assay: Anti-hypoxic activity (survival time under 4% O2 + 96% N2); format: in vivo; conditions: 30 minutes before mixed gas, control = 100
Procedure: Groups of ICR male mice, age 4 to 5 weeks, each group consisting of 10 mice and each mouse having been fasted for 24 hours, were used for the test. Mice were placed in a transparent desiccator (diameter: 19 cm, height: 30 cm) made of synthetic resin and having 2 bulbs, one at the upper portion and the other at the lower portion, for replacing the gas therein. A mixed gas (4% O2 +96% N2) was fed from the upper bulb at a rate of 10 l/min to measure the period of time until respiratory arrest took place for each mouse. The time measured was taken as the time of survival.
Each tested compound suspended in 5% gum arabic solution was intraperitoneally administered 30 minutes before the start of the mixed gas feeding. A group of mice to which only 5% gum arabic solution was intraperitoneally administered was used as a control.
Compounds, not sufficiently suspended in 5% gum arabic, were dissolved with Tween 80 so that the final concentration of the detergent was 3%, followed by the addition of 5% gum arabic. The anti-hypoxic activity was determined according to the following formula: [formula]

[2] = system: Fisher 344 male rats; assay: Toxicity experiment, oral administration; format: in vivo; conditions: period of 14 days; for Mortality: 500, 1,000, 1,500 and 2,000 mg/kg orally in propylene glycol
Description: Groups of Fisher 344 male rats, age 6 weeks, each group consisting of 5 rats were used for the test.

[3] = target: T1, prolyl endopeptidase prepared from canine brains (Canis lupus familiaris, UniProt A0A8I3N6C8); assay: Inhibitory activity against prolyl endopeptidase from brain; format: biochemical; conditions: substrate carbobenzoxyglycylprolyl paranitroanilide, 37° C., 10 minutes, read-out: Inhibition Potency, IC50
T1 construct: Prolyl endopeptidase was prepared from canine brains; from tissue; host or cells: canine brain
Procedure: Buffer A: 20 mM Tris-HCl buffer (pH 7.0)
Buffer B: a solution containing 0.1% gelatin, 1 mM EDTA, and 1 mM mercapto ethanol in buffer solution A
Prolyl endopeptidase was dissolved with the Buffer B at a concentration of 0.4 unit/ml. This solution (50 μl) was added to 940 μl of the Buffer A, and the solution thus obtained was left at 37° C. for 10 minutes (This solution is herein referred to as "Enzyme solution"). A mixed solution of 50 μl of the Buffer B and 940 μl of Buffer A was used as a "Correction solution".
A test compound was dissolved with dimathylsulfoxide (10 μl) was added to the Enzyme solution. The mixture was stirred and allowed to stand at 37° C. for 10 minutes. Separately, 10 μl of dimethylsulfoxide was added to the Enzyme solution and was processed in the same manner. The solution thus obtained was served as a "Control solution". The same procedure was carried out on the Correction solution.
One hundred micoliters of 2.5 mM carbobezoxyglycylprolyl paranitroanilide, which was dissolved with 40% dioxane, was added to each of the above 3 solutions, i.e., the Enzyme solution with the test compound, Control solution, and Correction solution, and the reaction was carried out at 37° C. for 10 minutes.
Enzyme activities were determined by subtracting the blank value, i.e., the absorbance measured on the Correction solution, from the absorbance of each of the sample solutions and of the Control solution.

[4] = system: ICR male mice; assay: Toxicity experiment, intraperitoneal administration; format: in vivo; conditions: 300 mg/kg intraperitoneally in 5% gum arabic, period of 7 days
Procedure: Groups of ICR male mice, age 4 to 5 weeks, each group consisting of 10 mice were used for the test. A dose of 300 mg/kg of each compound prepared in Examples 1 and 2 hereinbelow suspended in 5% gum arabic was intraperitoneally administered to each group of mice.

[5] = target: prolyl endopeptidase from Flavobacterium (Elizabethkingia meningoseptica, UniProt P27028); assay: biochemical
Procedure: Inhibitory activity of the compound of formula (I) against prolyl endopeptidase from Flavobacterium was measured according to the method of Yoshimoto and Tsuru [Arg.
Prolyl endopeptidase was dissolved with 20 mM Tris-HCl buffer (pH 7.4) at a concentration of 0.4 unit/ml. This solution (100 μl) was added to 890 μl of the same buffer, and the solution thus obtained was left at room temperature for 10 minutes. (This solution is herein referred to as an "Enzyme solution"). This buffer (990 μl) was used as a "Correction solution".
Test compound dissolved with dimethylsulfoxide (10 μl) was added to the Enzyme solution. The solution was stirred and allowed to stand at room temperature for 10 minutes. Separately, 10 μl of dimethylsulfoxide was added to Enzyme solution and was processed in the same manner. The solution thus obtained was served as a "Control solution". The same procedure was carried out on the Correction solution.
Enzyme activities were determined by subtracting the blank value, i.e., the absorbance measured on the Correction solution, from the absorbance of each of the sample solutions or of the Control solution.

[6] = system: ICR male mice; assay: Anti-amnesic activity (cycloheximide-induced amnesia, step-down passive avoidance); format: in vivo; conditions: for Amnesic Mice (%): latency shorter than 150 seconds at 24 hours
Procedure: Compounds of this invention were checked with respect to their abilities to prevent the inhibition of long-term memory fixation by cycloheximide which is an amnesia inducing compound. ICR male mice, age 6 to 7 weeks, were used for the test. The test was carried out using a step-down passive avoidance apparatus.
On the first day, a 5-minute training was given to each mouse which was placed on a rubber platform. Every time when the mouse stepped down on the grid floor, a 0.2 mA electric foot shock was applied until it stepped up on the platform. This motion of the mouse was repeated for 5 minutes.
Administration of cycloheximide and the compound of this invention was performed immediately after the training. Cycloheximide was dissolved in a saline and subcutaneously administered to the mouse. The compound of this invention, suspended in a sesame oil/Tween 80/5% gum arabic (3/1/96; by volume), was intraperitoneally administered. Aniracetam suspended in 5% gum arabic was orally administered. Twenty-four hours after the training, a retention test was performed, which consisted of placing the mouse on the platform again and measuring the latency of the mouse to step down on the grid floor. The amnesia ratio for each group of mice was determined as the percentage of amnesic mice taken latency shorter than 150 seconds.
- wherein %A is a percentage of amnesic mice, t denotes a test compound,
stands for cycloheximide, v stands for vehicle, and s stands for saline

[7] = read-out: Inhibition Potency, IC50
[8] = 1 mg/kg ip + cycloheximide 200 mg/kg sc
[9] = 3 mg/kg ip + cycloheximide 200 mg/kg sc
[10] = 30 mg/kg po + cycloheximide 200 mg/kg sc
[11] = 60 mg/kg po + cycloheximide 200 mg/kg sc

T1 sequence (A0A8I3N6C8 1-710): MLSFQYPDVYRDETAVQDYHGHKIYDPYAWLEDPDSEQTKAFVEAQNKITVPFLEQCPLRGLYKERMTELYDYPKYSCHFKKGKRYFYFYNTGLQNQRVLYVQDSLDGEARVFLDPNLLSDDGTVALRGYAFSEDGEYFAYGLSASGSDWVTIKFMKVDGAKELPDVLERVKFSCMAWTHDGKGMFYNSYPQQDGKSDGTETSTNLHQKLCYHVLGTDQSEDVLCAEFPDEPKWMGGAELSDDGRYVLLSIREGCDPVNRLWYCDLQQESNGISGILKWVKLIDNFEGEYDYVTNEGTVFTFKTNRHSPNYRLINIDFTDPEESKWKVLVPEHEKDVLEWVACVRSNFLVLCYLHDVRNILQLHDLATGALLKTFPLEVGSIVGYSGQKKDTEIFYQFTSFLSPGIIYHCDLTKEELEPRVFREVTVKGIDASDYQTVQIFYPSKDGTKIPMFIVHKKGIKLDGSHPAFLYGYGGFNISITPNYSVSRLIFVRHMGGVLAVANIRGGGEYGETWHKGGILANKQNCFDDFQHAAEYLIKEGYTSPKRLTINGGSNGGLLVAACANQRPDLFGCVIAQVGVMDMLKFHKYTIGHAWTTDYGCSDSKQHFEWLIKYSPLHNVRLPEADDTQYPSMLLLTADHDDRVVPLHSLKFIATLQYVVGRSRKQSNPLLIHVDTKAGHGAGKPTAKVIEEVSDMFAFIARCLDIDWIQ
Chain of prolyl endopeptidase from Flavobacterium (P27028 21-705): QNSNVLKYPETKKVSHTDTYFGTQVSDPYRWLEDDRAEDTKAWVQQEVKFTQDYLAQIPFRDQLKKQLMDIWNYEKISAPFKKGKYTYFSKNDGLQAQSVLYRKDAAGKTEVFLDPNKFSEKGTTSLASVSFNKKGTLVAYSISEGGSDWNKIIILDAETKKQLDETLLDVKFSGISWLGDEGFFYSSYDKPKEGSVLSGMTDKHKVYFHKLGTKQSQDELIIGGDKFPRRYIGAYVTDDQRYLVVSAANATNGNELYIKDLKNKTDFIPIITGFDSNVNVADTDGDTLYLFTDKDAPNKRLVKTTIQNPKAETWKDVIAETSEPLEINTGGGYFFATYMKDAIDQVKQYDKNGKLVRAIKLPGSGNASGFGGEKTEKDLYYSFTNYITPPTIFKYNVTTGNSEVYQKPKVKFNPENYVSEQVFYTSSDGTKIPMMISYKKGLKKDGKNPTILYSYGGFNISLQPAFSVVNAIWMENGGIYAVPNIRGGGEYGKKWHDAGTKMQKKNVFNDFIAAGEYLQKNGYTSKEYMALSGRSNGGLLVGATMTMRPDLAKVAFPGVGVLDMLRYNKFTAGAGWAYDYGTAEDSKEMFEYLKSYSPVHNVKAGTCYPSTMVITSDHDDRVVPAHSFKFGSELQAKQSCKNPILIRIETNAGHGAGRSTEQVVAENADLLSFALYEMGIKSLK

SMILES: O=C([C@@H]1CSCN1C(=O)CCCc1ccccc1)N1CCCC1 [Compound of Ex. 3, N-(4-phenylbutanoyl)-L-thioprolylpyrrolidineimide]
- Anti-hypoxic Activity (%) ([1]; dose 100 mg/kg ip): 169%
- Mortality [2]: No fatal problem
- IC50 [3]: 0.031 µM

SMILES: COC1=C(OC)C(=O)C(CCCCCCCCCCO)=C(C)C1=O [Idebenone, reference compound]
- Anti-hypoxic Activity (%) ([1]; dose 100 mg/kg ip): 140%

SMILES: O=C([C@H]1CCCN1C(=O)CCCc1ccccc1)N1CCSC1 [Compound of Ex. 4, N-(4-phenylbutanoyl)-D-prolylthiazolidineimide]
- Anti-hypoxic Activity (%) ([1]; dose 100 mg/kg ip): 164%

SMILES: O=C([C@@H]1CSCN1C(=O)CCCc1ccccc1)N1CCSC1 [Compound of Ex. 1, N-(4-phenylbutanoyl)-L-thioprolylthiazolidineimide]
- Mortality [4]: No fatal problem
- IC50 [5, 7]: 0.087 µM
- Anti-hypoxic Activity (%) ([1]; dose 100 mg/kg ip): 124%
- Amnesia Reversal (%) [6, 8]: 28.2%
- Amnesic Mice (%) [6, 8]: 52.9%
- Amnesia Reversal (%) [6, 9]: 74.8%
- Amnesic Mice (%) [6, 9]: 26.7%
- Mortality [2]: No fatal problem
- IC50 [3]: 0.017 µM

SMILES: COc1ccc(C(=O)N2CCCC2=O)cc1 [Aniracetam, reference compound]
- IC50 [5]: > 1000 µM
- Anti-hypoxic Activity (%) ([1]; dose 100 mg/kg ip): 115%
- Anti-hypoxic Activity (%) ([1]; dose 300 mg/kg ip): 159%
- Amnesia Reversal (%) [6, 10]: 22.8%
- Amnesic Mice (%) [6, 10]: 42.9%
- Amnesia Reversal (%) [6, 11]: 7.2%
- Amnesic Mice (%) [6, 11]: 50.0%

SMILES: O=C([C@@H]1CCCN1C(=O)CCCc1ccccc1)N1CCSC1 [Compound of Ex. 2, N-(4-phenylbutanoyl)-L-prolylthiazolidineimide]
- Mortality [4]: No fatal problem
- IC50 [5, 7]: 0.15 µM
- Anti-hypoxic Activity (%) ([1]; dose 100 mg/kg ip): 160%
- Mortality [2]: No fatal problem
- IC50 [3]: 0.041 µM

SMILES: O=C([C@@H]1CCCN1C(=O)CCCc1ccccc1)N1CCCC1 [SUAM 1221, reference compound]
- Rats died out of the 5 rats ([2]; 1,500 mg/kg orally): one
- Rats died out of the 5 rats ([2]; 2,000 mg/kg orally): 2

SMILES: CC(C)(CO)[C@@H](O)C(=O)NCCCC(=O)O [Calcium hopantenate, reference compound]
- IC50 ([5]; prolyl endopeptidase from Flavobacterium, substrate carbobenzoxyglycylprolyl paranitroanilide, 37° C., 10 minutes, read-out: Inhibition Potency, IC50): > 1000 µM
- Anti-hypoxic Activity (%) ([1]; dose 250 mg/kg ip): 135%
